Biological target: Phosphatidylinositol 4,5-bisphosphate 3-kinase catalytic subunit alpha isoform (Homo sapiens, UniProt P42336)
Assay: Inhibition of PI3Kalpha (unknown origin)

Phosphatidylinositol 4,5-bisphosphate 3-kinase catalytic subunit alpha isoform, sequence (P42336 whole entry, canonical isoform): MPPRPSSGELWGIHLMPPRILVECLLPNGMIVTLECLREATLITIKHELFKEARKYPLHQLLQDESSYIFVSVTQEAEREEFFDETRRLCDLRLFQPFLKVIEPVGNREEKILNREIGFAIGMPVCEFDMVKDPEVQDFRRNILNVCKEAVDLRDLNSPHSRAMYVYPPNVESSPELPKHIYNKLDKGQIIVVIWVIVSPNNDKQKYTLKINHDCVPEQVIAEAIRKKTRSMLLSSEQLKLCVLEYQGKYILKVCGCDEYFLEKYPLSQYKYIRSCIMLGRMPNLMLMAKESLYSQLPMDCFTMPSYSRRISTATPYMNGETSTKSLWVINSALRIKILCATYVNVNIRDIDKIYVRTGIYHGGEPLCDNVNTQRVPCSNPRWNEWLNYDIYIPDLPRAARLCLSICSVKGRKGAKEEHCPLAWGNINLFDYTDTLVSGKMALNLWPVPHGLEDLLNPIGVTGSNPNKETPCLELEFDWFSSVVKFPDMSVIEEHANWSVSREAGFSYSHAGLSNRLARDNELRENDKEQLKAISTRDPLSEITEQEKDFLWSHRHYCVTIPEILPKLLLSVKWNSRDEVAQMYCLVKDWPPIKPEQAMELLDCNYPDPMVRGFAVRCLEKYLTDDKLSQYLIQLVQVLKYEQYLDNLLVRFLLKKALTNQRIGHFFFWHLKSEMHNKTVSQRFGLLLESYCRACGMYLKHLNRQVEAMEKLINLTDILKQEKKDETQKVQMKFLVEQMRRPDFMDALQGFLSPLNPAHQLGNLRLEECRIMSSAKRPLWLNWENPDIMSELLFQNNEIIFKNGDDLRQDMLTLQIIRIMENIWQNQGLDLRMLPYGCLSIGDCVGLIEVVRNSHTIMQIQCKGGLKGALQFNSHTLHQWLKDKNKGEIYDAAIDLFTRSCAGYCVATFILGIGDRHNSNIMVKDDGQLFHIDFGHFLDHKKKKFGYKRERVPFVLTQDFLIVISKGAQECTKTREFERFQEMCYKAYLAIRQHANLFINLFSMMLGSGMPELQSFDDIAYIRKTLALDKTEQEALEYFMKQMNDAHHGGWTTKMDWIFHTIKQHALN

`COc1ccc(-c2cnc3[nH]cc(-c4ccc(OC)c(OC)c4)c3c2)cc1OC` gave an IC50 of over 10 µM.

Source: ChEMBL document CHEMBL3352338, “Development and biological evaluation of potent and selective c-KIT(D816V) inhibitors” (J Med Chem, 2014)
